According to the COVID Moonshot data (paper PMC11187573), “Identification of SARS-CoV-2 Mpro inhibitors through deep reinforcement learning for de novo drug design and computational chemistry approaches” (RSC Medicinal Chemistry, 2024):

Assays:
[1] = molecular target: SARS-CoV-2 Main Protease (SARS-CoV-2) (UniProt P0DTD1)
Experimental: Briefly, compounds were seeded into assay-ready plates (Greiner 384PP, cat# 781280) using an ECHO 650T dispenser and DMSO was back-filled for a uniform concentration in assay plates (DMSO concentration < 1%, final volume = 500 nL.). […] After a quick centrifugation step (1000 rpm, 15 s) the plate is incubated for 15 min at room temperature. […] After centrifugation (1000 rpm, 14 s) the reaction is incubated for 10 min (11-mer) or 5 min (37-mer) at room temperature before quenching with 10 % formic acid. The reactions are analysed with MS using RapidFire (RF) 365 high-throughput sampling robot (Agilent) connected to an iFunnel Agilent 6550 accurate mass quadrupole time-of-flight (Q-TOF) mass spectrometer using electrospray. […] Dose response curves uses an 11-point range of 100--0.0017 µM inhibitor concentrations. RapidFire integrator software (Agilent) was used to extract the charged states from the total ion chromatogram data followed by peak integration. For the 11-mer peptide the m/z (+1) charge states of both the substrate (1191.67 Da) and cleaved N-terminal product TSAVLQ (617.34 Da) were used and the 37-mer peptide the m/z (+2) charge states of the substrate (3960.94 Da) and m/z (+1) of the cleaved C-terminal product [sequence] (1125.57 Da). Percentage conversion (product peak integral / (product peak integral + substrate peak integral))*100) and percentage inhibitions were calculated and normalised against DMSO control with deduction of any background signal in Microsoft Excel. IC50s were calculated using Levenberg–Marquardt algorithm used to fit a restrained Hill equation to the dose-response data with both GraphPad PRISM and CDD.

[2] = molecular target: SARS-CoV-2 Main Protease (SARS-CoV-2) (UniProt P0DTD1); remark: listed apart in the source

Row | SMILES | inhibition ([1]; 20.0 µM) [%] | inhibition ([1]; 50.0 µM) [%] | relative solubility at 20 uM | relative solubility at 100 uM | inhibition ([2]; 50.0 µM) [%] | IC50 [1] [µM] | inhibition ([2]; 20.0 µM) [%]
1 | Cc1cccc(NC(=O)C(C#N)C(=O)C2CCCC2)c1 (centres undefined) | 0.78 | 0 | 1 | 1 | -8.28 |  | 
2 | C=CC(=O)N(c1ccc(C(C)(C)C)cc1)C(C(=O)NCCc1cccc(F)c1)c1cncc(C#N)c1 (centres undefined) |  | 89.2 | 0.57 | 0.46 | 87.1 | 2.47 | 49.6
3 | CC(C)c1ncncc1NC(=O)C(C)c1cccc(Cl)c1 (centres undefined) |  | 1.6 | 1.01 | 1 | 19 |  | 6.43
4 | O=S(=O)(Cc1ccccc1)Nc1cnccc1N1CCCC1 |  | 0 | 0.99 | 0.98 | 1.38 |  | 1.48
5 | C=CC(=O)N(c1ccc(N(C)C)c(C)c1)C(C(=O)Nc1c(C)cccc1CC)c1cccnc1 (centres undefined) | 0 |  | 0.9 | 0.77 | 13.2 |  | 6.4
6 | O=C1CC[C@@H](C(=O)Nc2cccc(Cl)c2)CN1 (stereo in doubt) |  | -12 | 1 | 1 | -3.68 |  | -24
7 | Cn1nnnc1NC(=O)Cc1csc(C(C)(C)C)n1 |  | 0 | 0.99 | 1 | 5.13 |  | 1.85
8 | COc1ccccc1OC1CCCN(C(=O)c2cc(=O)[nH]c3ccc(Cl)cc23)C1 (centres undefined) |  | 0 | 0.99 | 0.93 | 5.27 |  | -0.617
9 | CS(=O)(=O)Cc1ccc(C(=O)Nc2cccnc2)o1 | 0 |  | 1 | 1 | 6.26 |  | 0.469
10 | Cc1ccncc1NC(=O)CN1CCOCC1 |  | 5.7 | 1 | 1 | -7.76 |  | -2.39
11 | Cc1nc(CCn2c(C3CCC(=O)N3)nnc2N2CCOC(C)(C)C2)n[nH]1 (centres undefined) |  | 4.69 | 1 | 1 | 2.23 |  | -0.233
12 | CNCc1c[nH]c2ccc(F)cc12 | 3.09 | 16.1 | 0.99 | 1 | 32.7 |  | 
13 | C=CC(=O)N(c1cc(C(C)(C)C)n[nH]1)C(C(=O)Nc1ccc(Cl)cc1)c1cccnc1 (centres undefined) | 0 |  | 0.78 | 0.68 | 19.5 |  | 6.12
14 | CCC(C)(C)CCN(Cc1ccsc1)C(=O)Cn1nnc2ccccc21 | -4.79 | 40.1 | 0.99 | 0.73 | 48.3 |  | 
15 | C=CC(=O)N(c1ccc(C(C)(C)C)cc1)C(C(=O)Nc1ccc(F)cc1C)c1cccnc1 (centres undefined) |  | 1.37 | 0.96 | 0.91 | 13.9 |  | 5.61
16 | O=C(NCc1ccccc1OCCO)C(=O)N[C@H]1C[C@H]1C1CCOCC1 (stereo in doubt) |  | 0 | 1.01 | 1 | -9.81 |  | 1.34
17 | CCOC(=O)[C@H]1O[C@@H]1C(=O)N[C@@H](CC(C)C)C(=O)NCCC(C)C (stereo in doubt) |  | 0 | 1 | 1 | -5.21 |  | -1.54
18 | C#Cc1ccc(CNC(=O)N2CCOCC2)cc1 | 0 | 0 | 1 | 1 | 2.46 |  | 1.4
19 | Cc1ccncc1NC(=O)CCOC1CC1 |  | 0 | 1 | 1 | 22 |  | 8.26
20 | N#Cc1ccccc1S(=O)(=O)N1CCN(C(=O)c2cc(=O)[nH]c3ccc(F)cc23)CC1 |  | 29.9 | 0.99 | 0.92 | 29.9 |  | 14.7
21 | CS(=O)(=O)Nc1cccc(C(=O)Oc2cccc(N3CCCC3=O)c2)c1 | 0 | 11.2 | 0.99 | 0.86 | 35.7 |  | 
22 | C=CC(=O)N(c1ccc(N(C)C)c(C)c1)C(C(=O)Nc1ccc(Br)cc1)c1cccnc1 (centres undefined) | 0 |  | 0.84 | 0.74 | 3.43 |  | 3.45
23 | O=C(Cc1c[nH]c2ncccc12)NCc1ccc(Cl)cc1 | 0 |  | 1 | 0.95 | 3.45 |  | 2.99
24 | C=CC(=O)N(c1ccc(C(C)(C)C)cc1)C(C(=O)Nc1ccc(OC)cc1)c1cccnc1 (centres undefined) | 0 | 0 | 0.95 | 0.71 | 12 |  | 
25 | C=CC(=O)Nc1cccc(OC2CC(=O)N2)c1 (centres undefined) |  | 2.88 | 1 | 1 | 2.19 |  | 5.39
26 | C=CC(=O)N(c1ccc(C(C)(C)C)cc1)C(C(=O)NC(C)(C)C)c1cncc2ccccc12 (centres undefined) | 0 | 0 | 0.85 | 0.56 | -17.5 |  | -17.7
27 | C=CC(=O)N(c1ccc(C(C)(C)C)cc1)C(C(=O)NCc1cccnc1)c1cccnc1 (centres undefined) | 18.2 | 61.3 | 1 | 0.96 | 59.3 |  | 41.2
28 | C=CC(=O)N(c1ccc(C(C)(C)C)cc1)C(C(=O)NC1CCCCC1)c1cccnc1 (centres undefined) | 0 | 18.6 | 0.99 | 1 | 17.8 |  | 13.3

Row | SMILES | inhibition ([1]; 20.0 µM) [%] | inhibition ([1]; 50.0 µM) [%] | relative solubility at 20 uM | relative solubility at 100 uM | inhibition ([2]; 50.0 µM) [%] | IC50 [1] [µM] | inhibition ([2]; 20.0 µM) [%]
29 | Cc1ccccc1CNc1ccccc1NC(=O)C(O)c1cccnc1 (centres undefined) | 4.59 | 35.7 | 0.95 | 0.94 | 7.28 |  | -0.056
30 | O=C(c1cc(=O)[nH]c2ccc(F)cc12)N1CCN(S(=O)(=O)c2ccc(Cl)cc2)CC1 |  | 50 | 0.98 | 0.81 | 11.4 |  | -1.84
31 | COc1ccccc1OCCNC(=O)c1cc(=O)[nH]c2cc(F)ccc12 |  | 9.64 | 0.88 | 0.66 | 51.7 |  | -6.6
32 | CC(c1cccc(NC(=O)Cc2cnccc2Cl)c1)N1CCOCC1 (centres undefined) | 0 | 3.87 | 0.97 | 0.92 | 3.92 |  | 2.12
33 | O=C(Cc1ccc(O)cc1)Nc1cccc2cc[nH]c12 |  | 0 | 1 | 1 | -4.9 |  | -9.57
34 | C=CC(=O)N(c1ccc(SC)cc1)C(C(=O)Nc1ccc(OC)cc1)c1cccnc1 (centres undefined) | 0 |  | 0.91 | 0.77 | 27 |  | 13.5
35 | O=C(Cc1cccnc1)NCc1ccccc1 |  | 13 | 1 | 1 | 7.29 |  | 1.31
36 | CC(C(=O)Nc1cccc(OC2CC(=O)N2)c1)c1cnccn1 (centres undefined) | 0 | 0 | 1 | 1 | 17 |  | 
37 | Cc1cnn(-c2ccncc2NC(=O)Cn2cc(C)c3ccccc32)c1 |  | 0 | 0.59 | 0.1 | -0.417 |  | -8.61
38 | C=CC(=O)N(c1ccc(N(C)C)c(C)c1)C(C(=O)Nc1ccccc1Br)c1cccnc1 (centres undefined) | 0 |  | 0.86 | 0.79 | 8.13 |  | 2.84
39 | Cc1ccncc1CC(=O)Nc1cccc(Cl)c1 |  | 88.6 | 1 | 1 | 67.4 | 26.4 | 42.2
40 | C=CC(=O)N(c1ccc(C(C)OC)cc1)C(C(=O)Nc1c(C)cccc1CC)c1cccnc1 (centres undefined) | 0 |  | 0.96 | 0.87 | 3.94 |  | 5.9
41 | C=CC(=O)N(c1ccc(SC)cc1)C(C(=O)NC(C)(C)C)c1cccnc1 (centres undefined) | 0 |  | 1 | 0.99 | 7.75 |  | 3.54
42 | O=C(NCc1cccnn1)Nc1cccc(N2CCC2=O)c1 | 0 | 0 | 1 | 1 | 6.82 |  | 3.61
43 | Cc1ccncc1NC(=O)C1C2CCOCC21 (centres undefined) |  | 0 | 1 | 1 | -10.8 |  | -18.9
44 | O=C(Cc1cccc(Cl)c1)Nc1nnn[nH]1 |  | 27.2 | 1 | 1 | 49.1 |  | 23.3
45 | COc1cc(CNC(=O)Cc2ncc[nH]2)c2ccccc2n1 | 0 | 15.6 | 1 | 1 | -23.1 |  | 
46 | O=C(Nc1cccnc1)Nc1cccc(Cl)c1 |  | 44.1 | 0.98 | 0.99 | 30.9 |  | 12.9
47 | O=C(Cc1cccc(Cl)c1)Nc1cnns1 |  | 48.7 | 0.99 | 0.99 | 3.34 |  | 4.12
48 | C=CC(=O)N(c1ccc2c(ccn2C)c1)C(C(=O)NC(C)(C)C)c1cccnc1 (centres undefined) | 0 |  | 1.01 | 1 | -18 |  | -17.6
49 | NS(=O)(=O)c1ccc(N2CCC(N3CCCCC3)CC2)cc1 | 0 | 0 | 1 | 1 | 7.79 |  | 
50 | O=S(=O)(NCCc1ccccc1)c1ccoc1 | 0 | 16.5 | 1 | 1 | -24.5 |  | 
51 | Nc1cccc(C2CN(C(=O)CCl)Cc3ccccc32)c1 (centres undefined) |  | 100 | 0.97 | 0.96 | 53.4 | 11.4 | 48
52 | Cc1nn(C(C)C)c(C)c1CC(=O)Nc1nncn1C1CC1 |  | 5.29 | 1 | 1 | -6.89 |  | -5.19
53 | C=CC(=O)N(c1ccc(C(C)(C)C)cc1)C(C(=O)NCc1ccccc1)c1cccnc1 (centres undefined) | 69.1 | 100 | 0.99 | 0.89 | 66.6 | 14.3 | 42.3
54 | Cc1coc(NC(=O)Nc2cccnc2)n1 | 2.76 | 8.52 | 1 | 1 | 8.86 |  | 2.91
55 | CCN(C)CC1CCN(c2ccc(S(N)(=O)=O)cc2)CC1 | 0 | 0 | 1 | 0.98 | 6.02 |  | 3.39
